Results: ChEMBL document CHEMBL1157978, “In vivo wound-healing activity of oleanolic acid derived from the acid hydrolysis of Anredera diffusa” (2006)

Legend:
Format in all cases: functional
Mus musculus [1] = assay: Cicatrizant activity against mouse measured by wound breaking strength at 50 mg/ml administered every 12 hrs measured after 48 hrs relative to control
Mus musculus [2] = assay: Cicatrizant activity against mouse assessed as wound breaking strength per gram of body weight administered every 12 hrs measured after 48 hrs relative to control
Mus musculus [3] = assay: Cicatrizant activity against mouse measured by wound breaking strength at 30 ug/g administered every 12 hrs measured after 48 hrs relative to control
Mus musculus [4] = assay: Cicatrizant activity against mouse measured by wound breaking strength at 50 ug/g administered every 12 hrs measured after 48 hrs relative to control
Mus musculus [5] = assay: Cicatrizant activity against mouse measured by wound breaking strength at 12.5 mg/ml administered every 12 hrs measured after 48 hrs relative to control
Mus musculus [6] = assay: Cicatrizant activity against mouse measured by wound breaking strength at 40 ug/g administered every 12 hrs measured after 48 hrs relative to control
Mus musculus [7] = assay: Cicatrizant activity against mouse measured by wound breaking strength at 60 ug/g administered every 12 hrs measured after 48 hrs relative to control

SMILES | Activity (Mus musculus [1]) [%] | ED50 (Mus musculus [2]) [µg] | Activity (Mus musculus [3]) [%] | Activity (Mus musculus [4]) [%] | Activity (Mus musculus [5]) [%] | Activity (Mus musculus [6]) [%] | Activity (Mus musculus [7]) [%]
CC(C)=CCC[C@@](C)(O)[C@@H]1CC=C(C)CC1 | 17.6 | 155 | – | – | – | – | –
CC1(C)CC[C@]2(C(=O)O)CC[C@]3(C)C(=CC[C@@H]4[C@@]5(C)CC[C@H](O)C(C)(C)[C@@H]5CC[C@]43C)[C@@H]2C1 [OLEANOLIC_ACID] | – | – | 25.4 | 30.9 | 42.9 | 39.3 | 26.2
